{"source": "patent US11040981B2", "about": "“Pyrrolotriazine compounds and methods of inhibiting TAM kinases” (Syros Pharmaceuticals, Inc., priority 2017, dated 2021)", "tested_on": "colon carcinoma CT-26 cells", "experiment": "CT-26 syngeneic tumor growth inhibition, alone or with anti-PD1 antibody", "assay_type": "in vivo, Balb/c female mice", "conditions": "Compound 124 100 mg/kg oral twice daily combined with anti-PD1 antibody (clone RMP1-14) 10 mg/kg IP biweekly; compared with either agent as monotherapy; FIG. 3", "protocol": "BLAB/c syngeneic mice challenged with colon carcinoma CT-26 cells were used to test the tumor growth inhibitory activity of Compound 124 and an anti-PD1 antibody alone or in combination. CT-26 tumor cells were maintained in vitro as a monolayer culture in RPMI-1640 medium supplemented with 10% heat inactivated fetal bovine serum, 100 U/ml penicillin and 100 μg/ml streptomycin at 37° C. in an atmosphere of 5% CO2 in air. The tumor cells were routinely subcultured twice weekly by trypsin-EDTA treatment. The cells growing in an exponential growth phase were harvested and counted for tumor inoculation. […]\nMice (8 for each regimen) were dosed with one of the following regimens: (1) twice daily oral dosing with 100 mg/kg of Compound 124; (2) biweekly IP injections with 10 mg/kg of anti-PD1 antibody (clone RMP1-14); (3) a combination of twice daily Compound 124 (100 mg/kg) and biweekly anti-PD1 antibody (10 mg/kg) or (4) an orally dosed vehicle control. Subcutaneous tumor volumes were measured three times per week starting at three days post-first dosing using caliper measurements in 2 dimensions (looking down at the tumor, using the calipers to make 2 diameter measurements at right angles to each other). The tumor volume was then calculated using the following standard formula: Tumor Volume=0.5*A*B^2, wherein A=longest diameter of the tumor; and B=shortest diameter of the tumor.", "data": [{"smiles": "COC[C@H](C)Nc1ncc2c(-c3ccc(CN4CCN(C)CC4)cc3)cc([C@H]3CC[C@H](O)CC3)n2n1", "note": "(single isomer, unassigned) [Compound 124]", "values": [{"measurement": "tumor growth (subcutaneous tumor volume)", "result": "slower tumor growth"}]}]}
